Values joined by “and” are separate entries in the source; they are usually repeats but may differ in a detail not shown here. Equal entries are not always repeated. Structures can show the parent of a compound that is named as a salt.
Legend:
[1] = test system: dog plasma proteins; assay: Plasma protein binding by ultrafiltration, dog plasma; format: in vitro ADME; settings: for Concentration of mCBS, 200 ng/mL Post-filter / Concentration of mCBS, 200 ng/mL Pre-filter / Concentration of mCBS, 2000 ng/mL Post-filter / Concentration of mCBS, 2000 ng/mL Pre-filter: replicates and Mean
Method: (§1) Protein binding was assessed by an ultrafiltration method using Centrifree® Ultrafiltration Devices with a 30000 dalton molecular weight cut-off point. Briefly, known concentrations of mCBS (as free base) were added to human, rat and dog plasma samples and incubated for 20 min at 37° C. The samples were then subject to ultrafiltration to separate protein bound and unbound drug.
(§2) mCBS stock solutions (10 μL) were spiked into solutions of each test matrix (490 μL) as listed below in Table 9 to have a final concentration of 200 ng/mL & 2000 ng/m L.
(§3) Spiked samples were then incubated at 37° C. for 20 minutes in a water bath. Aliquots of the samples from each test group (500 μL) were transferred to the ultrafiltration devices (n=3) and centrifuged for 20 minutes at 1000 g. After centrifugation, aliquots of the ultrafiltrates (50 μL) were transferred to separate test tubes for extraction, alongside duplicate aliquots of the samples prior to ultrafiltration from each test group.
(§4) For quantification of samples before ultrafiltration, samples were analysed against a freshly prepared standard curve in plasma.

[2] = test system: human RBCs; assay: Histone-induced RBC fragility / lysis under shear; format: cell-based
[3] = mCBS vs CBS levels in phosphate buffered pH 7.5 clinical trial formulation stored at 2-8° C. (CAD); format: physicochemical; settings: 2-8° C.
[4] = test system: whole blood coagulation
[5] = test system: Beagle dogs; assay: Phase 2, continuous intravenous infusion at the MTD for 6 additional days; format: in vivo, dog
Method: Following confirmation of the MTD (2788 mg/kg/day), the dogs were then transferred to Phase 2 of the study, and the dosing administration was resumed at the MTD for 6 additional days of continuous infusion as indicated in Table 16 below.
Following completion of the additional 6 days of continuous infusion and collection of the last toxicokinetic blood samples, all animals were euthanized and subjected to a necropsy examination on Day 8. Histological examination was performed on the liver and kidneys of all animals.

[6] = mCBS vs CBS levels in bulk powder stored at −20° C. (CAD); format: physicochemical
Method: Table 2b compares mCBS vs CBS levels in a representative batch of bulk powder when stored at −20° C. over 24 months. T is for time in months. T=0 or T0 represents analytical results carried out on completion of manufacture. Subsequent analysis indicated are relative to the initial analysis of the drug powder or formulation (e.g. […] Analytical method employing CAD (Charged Aerosol Detector) was used to measure the level of mCBS purity and its impurities and expressed as CAD %.

[7] = Pharmacokinetics, intravenous bolus 20 mg/kg; format: in vivo, rat
Method: A total of ten blood samples were collected from three rats at time points ranging from pre-dose to 48 hours post-dose. The resulting blood samples were processed to plasma and subsequently analysed for the concentration of mCBS (free-base) using an LC-MS/MS based method. The plasma concentration versus time data were used for calculation of pharmacokinetic parameters.

[8] = test system: human RBCs; assay: Histone-induced RBC aggregation (flow cytometry autofluorescence, SEM); format: cell-based
[9] = test system: human platelets; assay: Histone-induced platelet aggregation; format: cell-based; settings: compounds added prior to histones 150 μg/mL
[10] = test system: Human platelets in whole blood; assay: Histone-induced platelet degranulation (ATP release); format: cell-based; settings: compounds added prior to histones 400 μg/mL
[11] = test system: C57BI/6 mice; assay: EAE model of multiple sclerosis; format: in vivo, mouse; settings: 50 mg/kg i.p. daily day 0-9, 35 day window
Method: EAE Model of Multiple Sclerosis. EAE was induced in 8-12 week old C57BI/6 mice by subcutaneous immunisation with 115 μg/mouse myelin oligodendrocyte glycoprotein (MOG35-55 genscript) in Complete Freund's Adjuvant (Sigma) on day 1. 300 ng/mouse Pertussis toxin (List Biological Laboratories) in PBS was injected intra peritoneal (i.p.) on days 0 and 2. 50 mg/kg mCBS in PBS or PBS alone (vehicle) was given i.p. daily for day 0-9. Mice were monitored daily for signs of disease and were scored on a scale of 0-5 based on physical manifestations of disease. Mice were scored as follows: 0, clinically normal; 1, flaccid tail and/or ataxia; 2, hind limb weakness; 3, hind limb paralysis; 4, hind and front limb paralysis; and 5, moribund.

[12] = Non-specific binding to ultrafiltration device (phosphate buffer); format: in vitro ADME; settings: for Concentration of mCBS, 200 ng/mL Post-filter / Concentration of mCBS, 200 ng/mL Pre-filter / Concentration of mCBS, 2000 ng/mL Post-filter / Concentration of mCBS, 2000 ng/mL Pre-filter: Phosphate Buffer pH 7.4, replicates and Mean
Method: as §1, §2, §3, §4

[13] = histones 400 μg/mL 55 min, then mCBS 5 min
[14] = IV bolus 20 mg/kg as sodium salt

## CO[C@@H]1O[C@H](COS(=O)(=O)O)[C@@H](O[C@@H]2O[C@H](COS(=O)(=O)O)[C@@H](OS(=O)(=O)O)[C@H](OS(=O)(=O)O)[C@H]2OS(=O)(=O)O)[C@H](OS(=O)(=O)O)[C@H]1OS(=O)(=O)O [mCBS, β-O-methyl cellobioside sulfate]
[1]; 200 ng/mL
  Plasma protein binding: 19.6%
[1]; 2000 ng/mL
  Plasma protein binding: 21.0%
[1]
  Concentration of mCBS, 200 ng/mL Post-filter: 194 ng/mL and 169 ng/mL and 186 ng/mL
  Concentration of mCBS, 200 ng/mL Pre-filter: 230 ng/mL and 225 ng/mL
  Concentration of mCBS, 2000 ng/mL Post-filter: 1970 ng/mL and 1840 ng/mL and 1900 ng/mL
  Concentration of mCBS, 2000 ng/mL Pre-filter: 2490 ng/mL and 2330 ng/mL
[1]; mean
  Concentration of mCBS, 200 ng/mL Post-filter: 183 ng/mL
  Concentration of mCBS, 200 ng/mL Pre-filter: 228 ng/mL
  Concentration of mCBS, 2000 ng/mL Post-filter: 1903 ng/mL
  Concentration of mCBS, 2000 ng/mL Pre-filter: 2410 ng/mL
[2]; 0-200 μg/mL prior to 400 μg/mL histones 60 min, 100 mm/s, 40× repetitions
  inhibition of histone-induced RBC lysis under shear: inhibit histone-induced lysis under shear in a dose-dependent manner
[2]; [13]
  reversal of histone-induced RBC susceptibility to lysis: near complete inhibition
[3]; T0 (months)
  level in phosphate buffered pH 7.5 formulation: 98.33 CAD %
[3]; T2
  level in phosphate buffered pH 7.5 formulation: 98.39 CAD %
[3]; T3
  level in phosphate buffered pH 7.5 formulation: 98.37 CAD %
[3]; T7
  level in phosphate buffered pH 7.5 formulation: 98.54 CAD %
[3]; T10
  level in phosphate buffered pH 7.5 formulation: 98.47 CAD %
[3]; T13
  level in phosphate buffered pH 7.5 formulation: 98.44 CAD %
[3]; T19
  level in phosphate buffered pH 7.5 formulation: 98.78 CAD %
[3]; over 18 months
  stability when stored in aqueous buffered solution: high stability
[4]
  concentration that doubled the control clotting time: 100000 ng/mL
  reduction in anticoagulant activity compared to LMWH, Enoxaparin: 110 fold
[5]; 2788 mg/kg/day continuous IV infusion
  tolerability: well tolerated
[5]; 2788 mg/kg/day, both animals
  t1/2 after end of infusion: approximately 1 hour
[6]; 24 months
  stability when stored in powder: high stability
[6]; T0 (months)
  level in bulk powder: 98.56 CAD %
[6]; T1
  level in bulk powder: 98.45 CAD %
[6]; T3
  level in bulk powder: 98.28 CAD %
[6]; T6
  level in bulk powder: 98.22 CAD %
[6]; T9
  level in bulk powder: 97.77 CAD %
[6]; T12
  level in bulk powder: 98.00 CAD %
[6]; T18
  level in bulk powder: 97.94 CAD %
[6]; T24
  level in bulk powder: 98.26 CAD %
[7]; [14]
  AUCinf, mean (±SEM): 35000 (±2940) ng·h/mL
  AUClast, mean (±SEM): 34300 (±2460) ng·h/mL
  apparent elimination half-life (T½), mean (±SEM): 77.5 (±54.5) h
  mean residence time (MRT), mean (±SEM): 5.58 (±3.99) h
  total body clearance (Cl), mean (±SEM): 0.472 (±0.0377) L/h/kg
  volume of distribution (Vz), mean (±SEM): 46.9 (±30.7) L/kg
[7]; IV bolus 20 mg/kg as sodium salt (16.3 mg/kg free base), plasma, n=3
  concentration at time zero (C0), mean (±SEM): 73400 (±8560) ng/mL
[7]; IV bolus 20 mg/kg, first 4 hours
  administered dose removed from the central compartment: over 90%
[8]; 0-200 μg/mL added prior to 400 μg/mL histones
  inhibition of histone-induced RBC aggregation: inhibit histone-induced RBC aggregation in a dose dependent manner
[8]; [13]
  reversal of histone-induced RBC aggregation: near complete inhibition
[8]; mCBS 200 μg/mL, histones 400 μg/mL 60 min
  prevention of histone-induced RBC aggregation: prevented
[9]
  histone-induced platelet aggregation: significantly reduced
[10]
  histone-induced platelet degranulation (ATP release): significantly reduced
[11]
  protection from EAE development: substantial protection
[12]; 200 ng/mL
  Non-specific binding (NSB %): 0.50%
[12]; 2000 ng/mL
  Non-specific binding (NSB %): −1.97%
[12]
  Concentration of mCBS, 200 ng/mL Post-filter: 194 ng/mL and 202 ng/mL
  Concentration of mCBS, 200 ng/mL Pre-filter: 209 ng/mL and 195 ng/mL
  Concentration of mCBS, 2000 ng/mL Post-filter: 2190 ng/mL and 2160 ng/mL
  Concentration of mCBS, 2000 ng/mL Pre-filter: 1970 ng/mL
[12]; mean
  Concentration of mCBS, 200 ng/mL Post-filter: 201 ng/mL
  Concentration of mCBS, 200 ng/mL Pre-filter: 202 ng/mL
  Concentration of mCBS, 2000 ng/mL Post-filter: 2070 ng/mL
  Concentration of mCBS, 2000 ng/mL Pre-filter: 2030 ng/mL

— patent US11628179B2, “Compounds for treating and preventing extracellular histone mediated pathologies” (priority 2017, dated 2023)
